Measured values from paper PMC9695821, “Synthesis and Evaluation of NF-κB Inhibitory Activity of Mollugin Derivatives” (Molecules, 2022).
Marks after values point to notes of the source that are not given here.

What was measured:
[1] = system: xylene-induced ear edema; assay: Xylene-induced ear edema test, deep screening (oral); format: in vivo; details: mice
Experimental: In the deep screening, mice were divided into target compound group, positive control group (ibuprofen), and blank group (8 male mice in each group). Target com-pound and ibuprofen were dissolved in sodium carboxymethyl cellulose aqueous solu-tion (sodium carboxymethyl cellulose to water, mass ratio 1:1000); the blank group was sodium carboxymethyl cellulose aqueous solution (sodium carboxymethyl cellu-lose to water, mass ratio 1:1000). The anti-inflammatory activities of each compound in the target compound group, positive control group, and blank group were measured at 1, 2, 3, 4, 6, 9, 12 and 24 h after taking the drug. The experimental operation and calculation method are the same as the initial screening part.

[2] = system: HeLa cells; assay: MTT cytotoxicity / cell viability assay; format: cell-based; details: for IC50 Cytotoxicity: MTT assay, 24 h treatment, normoxic conditions, mean, n = 3
Experimental: (§1) HeLa cells were inoculated and cultured in 96-well plates. After the cells adhered to the wall, the prepared target compounds with different concentrations were added to all plates for 24 h and then cultured in 5 mg/mL MTT solution for 4 h. The culture solution in the holes was sucked out, and DMSO reagent was added. After the crystallization was fully dissolved, the absorbance at 570 nm was measured by Multiskan GO.

[3] = MTT cytotoxicity / cell viability assay; format: cell-based; details: human; MTT assay, HeLa cells, 24 h treatment, normoxic conditions; mean, n = 3
Experimental: as §1

[4] = system: xylene-induced ear edema; assay: Xylene-induced ear edema test, initial screening (i.p.); format: in vivo; details: mice; for inhibition in vivo at 100 mg/kg: Mus musculus, ip, 0.5 h, n = 6, read-out: Inhibition Rate; for Edema Mean ± SD: 100 mg/kg, n = 6
Experimental: In vivo inhibition test of xylene induced ear edema in mice was performed to evaluate its anti-inflammatory activity.
In the initial screening, mice (male) were randomly divided into experimental group, positive control drug ibuprofen and Mesalazine group, and blank group. All target compounds were dissolved in dimethyl sulfoxide, and corresponding drugs were intraperitoneally injected into experimental group, positive control group and blank group, respectively. Mice were treated with 100 mg/kg, 0.1 mL/20 g body weight, and control mice received only DMSO (0.1 mL/20 g body weight). After 30 min, 20 μL of xy-lene was evenly applied on both sides of the right ear of the mice. After 30 min of xy-lene was applied, the mice were sacrificed by cutting off their necks. Then the left and right ears of the mice were drilled with a hole punch with a diameter of 7 mm, respec-tively, to obtain two round ear pieces. The degree of swelling (right ear mass–left ear mass) was calculated for each sample, and the swelling inhibition rate of each drug was calculated using the following formula. The inhibition rate of swelling degree (%) = (mean ear swelling degree of mice in blank group […] mean ear swelling degree of mice in target compound group)/mean ear swelling degree of mice in blank group × 100%. The data were processed by GraphPadPrism 5 and expressed as mean data ± SEM. One-way ANOVA method was used for statistical analysis of relevant data. A value of p < 0.05 in the chart indicates significant and statistically significant data dif-ference.

[5] = system: NF-κB transcriptional activity; assay: NF-κB luciferase reporter assay in HeLa cells; format: cell-based; details: for IC50: Homo sapiens, NF-κB luciferase reporter, 24 h treatment, hypoxic conditions, mean, n = 3
Experimental: A NF-κB-Luc plasmid for NF-κB luciferase reporter assay was obtained from Strategene (La Jolla, CA, USA). Transfections were performed as previously described. NF-κB-dependent luciferase activity was measured using the Dual-luciferase reporter assay system. Briefly, HeLa cells (1 × 10^5 cells/well) were seeded in a 96-well plate for 24 h. The cells were then transfected with plasmids for each well and then incubated for a transfection period of 24 h. […] Luciferase activity was determined in MicroLumat plus luminometer (EG&G Berthold, Bad Wildbad, Germany) by injecting 100 µL of assay buffer containing luciferin and measuring light emission for 10 s. Co-transfection with pRL-CMV (Promega, Madison, WI, USA), which expresses Renilla luciferase, was performed to enable normalization of data for transfection efficiency.

[6] = system: p65; assay: Western blot of nuclear extracts, TNF-α-induced p65; format: cell-based

| SMILES | melting point | Inhibition ([1]; 100 mg/kg, time 1 h) | Inhibition ([1]; 100 mg/kg, time 2 h) | Inhibition ([1]; 100 mg/kg, time 3 h) | Inhibition ([1]; 100 mg/kg, time 4 h) | Inhibition ([1]; 100 mg/kg, time 9 h) | Inhibition ([1]; 100 mg/kg, time 12 h) | Inhibition ([1]; 100 mg/kg, time 24 h) | Inhibition ([1]; dose series, 25 mg/kg, 6 h) | Inhibition ([1]; dose series, 50 mg/kg, 6 h) | IC50 Cytotoxicity [2] | IC50 at 24 h [3] | inhibition in vivo at 100 mg/kg [4] | Edema Mean ± SD [4] | IC50 [5] | TNF-α-induced expression of p65 ([6]; HeLa cells, 100 µM) | TNF-α-induced p65 phosphorylation ([6]; HeLa cells, 10, 30, 100 µM for 12 h, then 10 ng/mL TNF-α 30 min, nuclear extracts) | cell viability ([2]; 30 µM, 24 h, Figure 2B) | inhibition of NF-κB luciferase activity, dose dependence ([5]; Figure 2A) |
| --- | --- | --- | --- | --- | --- | --- | --- | --- | --- | --- | --- | --- | --- | --- | --- | --- | --- | --- | --- |
| COC(=O)c1c2c(c3ccccc3c1OCC(=O)Nc1ccc(F)cc1)OC(C)(C)C=C2 [Compound 4f, Methyl 6-(2-((4-fluorophenyl)amino)-2-oxoethoxy)-2,2-dimethyl-2H-benzo [h] chromene-5-carboxylate] | 132 to 134 °C | 27.53% *** | 37.12% *** | 46.46% *** | 58.08% *** | 43.94% *** | 35.35% *** | 26.01% *** | 46.46% ** | 53.08% *** | no significant cell toxicity | > 100 µM | 83.1% | 1.1167 ± 0.2544 mg | 18.5 µM | – | – | – | – |
| COC(=O)c1c2c(c3ccccc3c1OCC(=O)Nc1ccc(OC)cc1)OC(C)(C)C=C2 [Compound 4d, Methyl 6-(2-((4-methoxyphenyl)amino)-2-oxoethoxy)-2,2-dimethyl-2H-benzo [h] chromene-5-carboxylate] | 126 to 128 °C | – | – | – | – | – | – | – | – | – | no significant cell toxicity | > 100 µM | 61.9% | 2.5167 ± 0.6890 mg | 88.2 µM | – | – | – | – |
| COC(=O)c1c2c(c3ccccc3c1OCC(=O)Nc1ccc3ncccc3c1)OC(C)(C)C=C2 [Compound 6d, Methyl 2,2-dimethyl-6-(2-oxo-2-(quinolin-6-ylamino)ethoxy)-2H-benzo [h] Chromene-5-carboxylate] | 135 to 137 °C | 25.76% *** | 33.84% *** | 41.92% *** | 52.53% *** | 37.63% *** | 31.82% *** | 25.25% *** | 41.92% ** | 46.32% *** | did not show any significant cytotoxicity | > 100 µM | 76.8% | – | 3.81 µM | inhibited TNF-α-induced expression of p65 | significantly inhibited TNF-α-induced p65 phosphorylation in a dose-dependent manner | did not adversely affect the cell viability | dose-dependent inhibition |
| COC(=O)c1c2c(c3ccccc3c1OCC(=O)Nc1ccc(C)cc1)OC(C)(C)C=C2 [Compound 4e, Methyl 2,2-dimethyl-6-(2-oxo-2-(p-tolylamino)ethoxy)-2H-benzo [h] chromene-5-carboxylate] | 120 to 122 °C | – | – | – | – | – | – | – | – | – | no significant cell toxicity | > 100 µM | 41.4% | 3.8667 ± 1.2023 mg | 55.1 µM | – | – | – | – |
| COC(=O)c1c2c(c3ccccc3c1OCCNc1ccccc1)OC(C)(C)C=C2 [Compound 8b, Methyl 2,2-dimethyl-6-(2-(phenylamino)ethoxy)-2H-benzo[h]chromene-5-carboxylate] | 135 to 137 °C | – | – | – | – | – | – | – | – | – | – | > 100 µM | 76.5% | 1.5500 ± 0.3594 mg | > 100 µM | – | – | – | – |
| COC(=O)c1c2c(c3ccccc3c1OCCNc1ccc(F)cc1)OC(C)(C)C=C2 [Compound 8c, Methyl6-(2-((4-fluorophenyl)amino)ethoxy)-2,2-dimethyl-2H-benzo [h] chromene-5-carboxylate] | 128 to 130 °C | – | – | – | – | – | – | – | – | – | – | > 100 µM | 63.9% | 2.3833 ± 0.7104 mg | > 100 µM | – | – | – | – |
| COC(=O)c1c2c(c3ccccc3c1OCC(=O)Nc1ccncc1C)OC(C)(C)C=C2 [Compound 6b, Methyl 2,2-dimethyl-6-(2-((3-methylpyridin-4-yl)amino)-2-oxoethoxy)-2H-benzo [h] chromene-5-carboxylate] | 123 to 125 °C | – | – | – | – | – | – | – | – | – | – | > 100 µM | 63.1% | 2.4333 ± 0.1795 mg | 41.9 µM | – | – | – | – |
| COC(=O)c1c2c(c3ccccc3c1OCC(=O)Nc1ccc(CC#N)cc1)OC(C)(C)C=C2 [Compound 4i, Methyl 6-(2-((4-(cyanomethyl)phenyl)amino)-2-oxoethoxy)-2,2-dimethyl-2H-benzo [h] chromene-5-carboxylate] | 115 to 117 °C | – | – | – | – | – | – | – | – | – | no significant cell toxicity | > 100 µM | 59.1% | 2.7000 ± 0.4619 mg | 22.9 µM | – | – | – | – |
